Results as given in ChEMBL document CHEMBL1125282, “Evaluation of desferrithiocin and its synthetic analogues as orally effective iron chelators” (1991).

Columns and labels:
Type in all cases: functional
Rattus norvegicus [1] = assay: Total iron output induced by the compound (oral administration) and bile duct cannulated rat and the drug-promoted iron excretion was monitored in the bile at 18 h
Rattus norvegicus [2] = assay: Total iron output induced by the compound (oral administration) and bile duct cannulated rat and the drug-promoted iron excretion was monitored in the bile at 21 hr; further: test concentration or dose not given here
Rattus norvegicus [3] = assay: Total iron output induced by the compound (oral administration) and bile duct cannulated rat and the drug-promoted iron excretion was monitored in the bile at 6 hr; further: test concentration or dose not given here
Rattus norvegicus [4] = assay: Total iron output induced by the compound (oral administration) and bile duct cannulated rat and the drug-promoted iron excretion was monitored in the urine at 24 hr
Rattus norvegicus [5] = assay: Total iron output induced by the compound (oral administration) and bile duct cannulated rat and the drug-promoted iron excretion was monitored in the bile at 9 h
Rattus norvegicus [6] = assay: Total iron output induced by the compound (oral administration) and bile duct cannulated rat and the drug-promoted iron excretion was monitored in the bile at 3h; further: test concentration or dose not given here
Rattus norvegicus [7] = assay: Total iron output induced by the compound (oral administration) and bile duct cannulated rat and the drug-promoted iron excretion was monitored in the bile at 24 hr
Rattus norvegicus [8] = assay: Total iron output induced by the compound (oral administration) and bile duct cannulated rat and the drug-promoted iron excretion was monitored in the bile at 15 hr; further: test concentration or dose not given here
Rattus norvegicus [9] = assay: Total iron output induced by the compound (oral administration) and bile duct cannulated rat and the drug-promoted iron excretion was monitored in the bile at 12 hr
Rattus norvegicus [10] = assay: Total iron output induced by the compound (sc administration) and bile duct cannulated rat and the drug-promoted iron excretion was monitored in the bile at 15 hr
Rattus norvegicus [11] = assay: Total iron output induced by the compound (sc administration) and bile duct cannulated rat and the drug-promoted iron excretion was monitored in the bile at 24 hr
Rattus norvegicus [12] = assay: Total iron output induced by the compound (sc administration) and bile duct cannulated rat and the drug-promoted iron excretion was monitored in the bile at 18 h
Rattus norvegicus [13] = assay: Total iron output induced by the compound (sc administration) and bile duct cannulated rat and the drug-promoted iron excretion was monitored in the bile at 21 hr
Rattus norvegicus [14] = assay: Total iron output induced by the compound (sc administration) and bile duct cannulated rat and the drug-promoted iron excretion was monitored in the bile at 9 h
Rattus norvegicus [15] = assay: Total iron output induced by the compound (sc administration) and bile duct cannulated rat and the drug-promoted iron excretion was monitored in the bile at 6 hr
Rattus norvegicus [16] = assay: Total iron output induced by the compound (sc administration) and bile duct cannulated rat and the drug-promoted iron excretion was monitored in the urine at 24 hr
Rattus norvegicus [17] = assay: Total iron output induced by the compound (sc administration) and bile duct cannulated rat and the drug-promoted iron excretion was monitored in the bile at 3h
Rattus norvegicus [18] = assay: Total iron output induced by the compound (sc administration) and bile duct cannulated rat and the drug-promoted iron excretion was monitored in the bile at 12 hr

| Structure (SMILES) | Total iron output (Rattus norvegicus [1]) [µg/kg] | Total iron output (Rattus norvegicus [2]) [µg/kg] | Total iron output (Rattus norvegicus [3]) [µg/kg] | Total iron output (Rattus norvegicus [4]) [µg/kg] | Total iron output (Rattus norvegicus [5]) [µg/kg] | Total iron output (Rattus norvegicus [6]) [µg/kg] | Total iron output (Rattus norvegicus [7]) [µg/kg] | Total iron output (Rattus norvegicus [8]) [µg/kg] | Total iron output (Rattus norvegicus [9]) [µg/kg] | Total iron output (Rattus norvegicus [10]) [µg/kg] | Total iron output (Rattus norvegicus [11]) [µg/kg] | Total iron output (Rattus norvegicus [12]) [µg/kg] | Total iron output (Rattus norvegicus [13]) [µg/kg] | Total iron output (Rattus norvegicus [14]) [µg/kg] | Total iron output (Rattus norvegicus [15]) [µg/kg] | Total iron output (Rattus norvegicus [16]) [µg/kg] | Total iron output (Rattus norvegicus [17]) [µg/kg] | Total iron output (Rattus norvegicus [18]) [µg/kg] |
| --- | --- | --- | --- | --- | --- | --- | --- | --- | --- | --- | --- | --- | --- | --- | --- | --- | --- | --- |
| O=C([O-])[C@@H]1CSC(c2ncccc2O)=N1.[Na+] | 65.3 | 74.8 | 28.1 | 21 | 40.7 | 9 | 81.9 | 56.3 | 48.5 | – | – | – | – | – | – | – | – | – |
| O=C([O-])[C@@H]1CSC(c2ccccc2O)=N1.[Na+] | 226.8 | 238.1 | 91.6 | 18.67 | 143.8 | 28.6 | 246.9 | 210.6 | 184.9 | – | – | – | – | – | – | – | – | – |
| O=C(O)[C@@H]1CSC(c2ccccn2)=N1 | 56.2 | 64.1 | 22.5 | 14.2 | 31.2 | 11.8 | 71.9 | 47.1 | 39.5 | – | – | – | – | – | – | – | – | – |
| O=C(O)[C@@H]1CSC(c2ncccc2O)=N1 | 201.3 | 209.6 | 98.2 | 14.1 | 154 | 28.7 | 217.2 | 194 | 182.3 | – | – | – | – | – | – | – | – | – |
| C[C@]1(C(=O)NCCCCNCCCNC(=O)[C@@]2(C)CSC(c3ncccc3O)=N2)CSC(c2ncccc2O)=N1 | 74 | 82.2 | 30 | 18 | 45.2 | 13.2 | 92.8 | 65.8 | 56.6 | – | – | – | – | – | – | – | – | – |
| COC(=O)[C@H]1N=C(c2ncccc2O)O[C@@H]1C | 49.4 | 55.1 | 21.3 | 7.6 | 20.2 | 11.3 | 60.8 | 43.7 | 37.3 | – | – | – | – | – | – | – | – | – |
| COC(=O)[C@@H]1CSC(c2ncccc2O)=N1 | 81 | 85.3 | 53.3 | 18.7 | 59.9 | 42.9 | 93.3 | 74.7 | 68.7 | – | – | – | – | – | – | – | – | – |
| O=C([O-])[C@@H]1CSC(c2ccccn2)=N1.[Na+] | 49.6 | 56.8 | 16.6 | 11.9 | 26.2 | 7.1 | 62.1 | 42.2 | 34.9 | – | – | – | – | – | – | – | – | – |
| CC(=O)N(O)CCCCCNC(=O)CCC(=O)N(O)CCCCCNC(=O)CCC(=O)N(O)CCCCCN [DEFEROXAMINE] | 119.8 | 128.7 | 43.9 | 16.5 | 76.8 | 14.7 | 135 | 110.8 | 97.1 | 196.2 | 228.4 | 210.7 | 219.8 | 152.8 | 105.9 | 49.2 | 43.6 | 173.9 |
| C[C@]1(C(=O)[O-])CSC(c2ncccc2O)=N1.[Na+] [DESFERRITHIOCIN SODIUM] | 146.8 | 153.2 | 70 | 38.43 | 111.7 | 21.8 | 159.3 | 135.9 | 125.8 | – | – | – | – | – | – | – | – | – |
| C[C@]1(C(=O)O)CSC(c2ncccc2O)=N1 [DESFERRITHIOCIN] | 253.7 | 263.1 | 143 | 27 | 205.3 | 64.5 | 268.5 | 245.6 | 234.8 | – | – | – | – | – | – | – | – | – |
